Source: patent US8044018B2, “Reagents and methods for smooth muscle therapies” (Arizona Board of Regents, priority 2008, dated 2011)
Non-standard residues stand in square brackets, D forms with d. No end group written: not given here. *: point of attachment. FITC = O=C1OC2(c3ccc(O)cc3Oc3cc(O)ccc32)c2ccc(NC(=S)*)cc21; Fmoc = O=C(OCC1c2ccccc2-c2ccccc21)*; pS = N[C@@H](COP(=O)(O)O)C(=O)O; βAla = NCCC(=O)O

How the values were obtained:
rabbit aorta = experiment: Muscle bath: rabbit aorta rings pre-contracted with norepinephrine, endothelium not denuded; details: pre-contracted with norepinephrine 10^−7 M; for relaxation and inhibition of spasm: peptides retained the Fmoc moiety
Protocol: Rings of rabbit aorta in which the endothelium was not denuded, were suspended in a muscle bath containing bicarbonate buffer (120 mM NaCl, 4.7 mM KCl, 1.0 mM MgSO4, 1.0 mM NaH2PO4, 10 mM glucose, 1.5 mM CaCl2, and 25 mM […], pH 7.4), equilibrated with 95% O2/5% CO2, at 37° C. at one gram of tension for 2 hours. The rings were pre-contracted with norepinephrine (10^−7 M) and treated with RRRRRRApSAPLP (SEQ ID NO:309) or RRRRWLRRApSAPLP (SEQ ID NO:310). […] The peptides used were prepared by Fmoc-based peptide synthesis, and the peptides retained the Fmoc moiety at the amino terminus of the peptide.

[1] = test system: Bovine aortic endothelial cells; experiment: Focal adhesion disassembly, interference reflection microscopy; assay type: cell-based; details: HSP20 peptides 10 uM for 30 minutes; serum starved one hour
Protocol: Bovine aortic endothelial cells were plated on glass coverslips (80K-100K cells) in DMEM plus 10% FBS over night (24 wells plate). The cells were serum starved (no serum) for one hour and incubated in the presence of the peptide analogues of HSP20 [NH2-βAYARRAAARQARAWLRRAS*APLPGLK-COOH-pHSP20 (10 uM) (SEQ ID NO:307) or scrambled analogues of HSP20 [NH2-βAYARRAAARQARAPRKS*LWALGRPLA-COOH-scHSP20 (10 uM)] (SEQ ID NO:308) for 30 minutes. The cells were fixed with 3% glutaraldehyde and the number of focal adhesions was detected with interference reflection microscopy. The Hep I peptide was used as a positive control. This peptide binds to the heparin binding site of thrombospondin in induces focal adhesion disassembly. […] The results are illustrated in FIG. 7.

A10 cells = experiment: Serum-induced proliferation, cell counts; assay type: cell-based; details: 50 μM in 10% FBS; 24 hours; serum starved 3 days beforehand
Protocol: A10 cells were serum starved for 3 days. The cells were then treated with media containing 10% fetal bovine serum, PTD-pHSP20 (NH2-βAYARRAAARQARAWLRRAS*APLPGLK-COOH (SEQ ID NO:307), or PTD-scrambled-pHSP20 (NH2-βAYARRAAARQARAPRKS*LWALGRPLA-COOH (SEQ ID NO:308) (50 μM). After 24 hours cell counts were performed. The number of cells per well in the serum starved plates averaged […] (+/−7.4) compared to 276+/−6.1 in wells containing 10% fetal bovine serum (FBS). In the presence of FBS, the phosphopeptide analogues of HSP20 containing a transduction domain inhibited of smooth muscle proliferation, 149+/−14.6 compared to transduction of the scrambled phosphopeptide analogue of HSP20 (242.3+/−15.3 cells/well). The results of these experiments are illustrated in FIG. 9.

[2] = test system: Rat aortic smooth muscle cells; experiment: LPA-induced actin fiber formation, phalloidin staining and confocal microscopy; assay type: cell-based
Protocol: Rat aortic smooth muscle cells were treated with lyophosphatidic acid (LPA) in the presence and absence of FITC-TAT-pHSP20 (FITC-NH2-β[…]*APLPGLK-COOH, 50 uM) (SEQ ID NO:307) Lysophosphatidic acid (LPA) is a substance which promotes actin fiber formation.
The cells were fixed and stained with phalloidin and images were obtained with confocal microscopy. […] These studies confirm that HSP20 has a direct role in modulating actin fiber formation.

[3] = test system: PKG transfected rat aortic smooth muscle cells; experiment: Wrinkle assay: PKG transfected rat aortic smooth muscle cells on silicone substrata; assay type: cell-based; details: 10 uM for 30 minutes
Protocol: Rat aortic smooth muscle cells that are multiply passaged or that stably express PKG were cultured on a silicone substrata in the presence of serum. The cells were imaged with phase contrast microscopy (10× magnification). […] To determine if the wrinkles were reversible, PKG transfected cells were treated with dibutyryl cAMP (10 uM) for 30 minutes.

Mesangial cells [4] = experiment: Wrinkle assay: mesangial cells transfected with GFP, WT HSP20 or S16A-HSP20, on silicone rubber substrata; assay type: cell-based; details: dibutyryl cAMP 10 ΦM, 0-90 minutes
Protocol: The experiment was performed in the following fashion: Mesangial cells were transfected with vectors containing green fluorescent protein (GFP) alone, GFP fused to the 5′ end of the wild type cDNA for HSP20 (WT), or GFP fused to an HSP20 construct in which the PKA phosphorylation site was mutated to an alanine (S16A-HSP20) (MUT). The cells were plated on a silicone rubber substrata in the presence of serum for 48 hours. The plates were then placed on the stage of a Zeiss Inverted Fluorescence Microscope with DeltaVision image acquisition and deconvolution software (Applied Precision, Issaquah, Wash.). The DeltaVision software was configured to eight different cells (x and y axis) on each plate with 7 z-axis images taken at […] intervals. Fluorescent and phase contrast images were obtained such that the cells and silicone membrane were imaged in close succession. During the scanning process, the z-axis of each cell was monitored to assure that the imaging stacks were maintained at the appropriate level as the cells relaxed on the silicone membrane. Baseline images were acquired for one hour. The cells were then treated with […] dibutyryl cAMP (10 ΦM) for 0 minutes, 30 minutes, 60 minutes, or 90 minutes, and the results are illustrated in FIG. 1. […]

Mesangial cells [5] = experiment: Actin filament staining (rhodamine phalloidin) of transfected mesangial cells; assay type: cell-based; details: 10 μM for 30 minutes; cells transfected with EGFP alone or S16A-HSP20
From the text: Transfected mesangial cells were fixed and the actin filaments were stained with fluorescent-labeled phalloidin.

[6] = test system: bovine carotid artery smooth muscle; experiment: Muscle bath: serotonin pre-contracted strips of bovine carotid artery, denuded of endothelium; details: cumulative doses added every 10 minutes; n=5
Protocol: Transverse strips of bovine carotid artery smooth muscle, denuded of endothelium, were suspended in a muscle bath containing bicarbonate buffer (120 mM NaCl, 4.7 mM KCl, 1.0 mM MgSO4, 1.0 mM NaH2PO4, 10 mM glucose, 1.5 mM CaCl2, and 25 mM […], pH 7.4), equilibrated with 95% O2/5% CO2, at 37° C. at one gram of tension for 2 hours. The muscles were pre-contracted with serotonin ([…] for 10 minutes) and cumulative doses of FITC-phosphoHSP20-TAT, FITC-scrambled phosphoHSP20-TAT (FITC-NH2-β[…]*LWALGRPLA-COOH, open circles) (SEQ ID NO:305), or FITC-TAT (FITC-NH2-β[…], closed triangles) (SEQ ID NO:306) were added every 10 minutes. The force is depicted as a percentage of the maximal serotonin contraction (n=5, *=p<0.05 compared to 0 peptide added). Representative strips were fixed in 4% paraformaldehyde and examined under fluorescence microscopy (40× magnification).

Mesangial cells [7] = experiment: Wrinkle assay: mesangial cells on silicone substrata treated with phosphopeptide; assay type: cell-based; details: 50 μM peptide; plated 48 hours in serum; phase contrast microscopy; n=10
Protocol: Mesangial cells were plated on a silicone substrata in the presence of serum and after 48 hours the cells were treated with the FITC-TAT-HSP20 phosphopeptide (50 μM). The number of wrinkles under the cells was determined at the time points indicated using phase contrast microscopy (n=10, *=p<0.05 compared to time 0). Results of this Experiment are illustrated in FIG. 2.

For “RRRRWLRRApSAPLP (Fmoc-RRRRWLRRA[pS]APLP)”, the “speed and duration of relaxation compared with the longer peptides” value (rabbit aorta) was “relaxation was faster and the muscles remained in a relaxed state for longer” and the “relaxation and inhibition of spasm” value (rabbit aorta) was “rapid and complete relaxation and inhibition of spasm”.
With “NH2-βAYARRAAARQARAPRKS*LWALGRPLA-COOH (AYARRAAARQARAPRKSLWALGRPLA; HELM PEPTIDE1{[bAla].Y.A.R.R.A.A.A.R.Q.A.R.A.P.R.K.[O=C([C@H](COP(=O)(O)O)N[*:1])[*:2]].L.W.A.L.G.R.P.L.A}$$$$V2.0; SMILES CC(C)C[C@H](NC(=O)[C@H](C)NC(=O)[C@H](Cc1c[nH]c2ccccc12)NC(=O)[C@H](CC(C)C)NC(=O)[C@H](COP(=O)(O)O)NC(=O)[C@H](CCCCN)NC(=O)[C@H](CCCNC(=N)N)NC(=O)[C@@H]1CCCN1C(=O)[C@H](C)NC(=O)[C@H](CCCNC(=N)N)NC(=O)[C@H](C)NC(=O)[C@H](CCC(N)=O)NC(=O)[C@H](CCCNC(=N)N)NC(=O)[C@H](C)NC(=O)[C@H](C)NC(=O)[C@H](C)NC(=O)[C@H](CCCNC(=N)N)NC(=O)[C@H](CCCNC(=N)N)NC(=O)[C@H](C)NC(=O)[C@H](Cc1ccc(O)cc1)NC(=O)CCN)C(=O)NCC(=O)N[C@@H](CCCNC(=N)N)C(=O)N1CCC[C@H]1C(=O)N[C@@H](CC(C)C)C(=O)N[C@@H](C)C(=O)O) [PTD-scrambled-pHSP20, Scrambled analogue of the HSP20 phosphopeptide with PTD, control, reference compound]” the “focal adhesion disassembly (number of focal adhesions)” value [1] was “no significant effect” and the “number of cells per well” value (A10 cells) was 242.3+/−15.3 cells/well.
“Lysophosphatidic acid [LPA, reference compound]” was tested, and the “actin stress fiber formation” value ([2]; LPA alone) was “robust actin stress fiber formation”.
For `CCCC(=O)Nc1ncnc2c1ncn2[C@@H]1O[C@@H]2COP(=O)(O)O[C@H]2[C@H]1OC(=O)CCC` [dibutyryl cAMP], the wrinkle formation [3] was “decrease in wrinkle formation”, the “wrinkles under the cells (relaxation)” value (Mesangial cells [4]; cells expressing S16A-HSP20 (MUT)) was “did not relax” and the “wrinkles under the cells (relaxation)” value (Mesangial cells [4]; control cells expressing GFP) was “relaxed over time”. For the same molecule, the “central actin stress fibers” value (Mesangial cells [5]) was “loss of central actin stress fibers in EGFP but not S16A-HSP20 cells”.
For RRRRRRApSAPLP (Fmoc-RRRRRRA[pS]APLP), the “speed and duration of relaxation compared with the longer peptides” value (rabbit aorta) was “relaxation was faster and the muscles remained in a relaxed state for longer” and the “relaxation and inhibition of spasm” value (rabbit aorta) was “rapid and complete relaxation and inhibition of spasm”.
With “FITC-NH2-βAGGGGYGRKKRRQRRRPRKS*LWALGRPLA-COOH ({FITC}-[βAla]GGGGYGRKKRRQRRRPRK[pS]LWALGRPLA-OH) [FITC-scrambled phosphoHSP20-TAT]” the “contractile force as percentage of the maximal serotonin contraction” value (“contractile force as percentage” below) [6] was “no significant effect”.
With “NH2-βAGGGGYGRKKRRQRRRWLRRAS*APLPGLK-COOH ([βAla]GGGGYGRKKRRQRRRWLRRA[pS]APLPGLK-OH; not fully specified (N-terminus); printed as NH2-βAGGGGYGRKKRRQRRRWLRRAS*APLPGLK-COOH; also: FITC label, position not given here) [FITC-TAT-HSP20]” the “contractile force as percentage” value [6] was “dose dependent decrease”, the “number of wrinkles under the cells (relaxation of the cells)” value (Mesangial cells [7]) was “time dependent loss of wrinkles” and the “central actin stress fibers” value ([2]; LPA in the presence of peptide, 50 uM) was “loss of central actin stress fibers”.
In the case of “FITC-NH2-βAGGGGYGRKKRRQRRR ({FITC}-[βAla]GGGGYGRKKRRQRRR) [FITC-TAT, FITC-labelled TAT transduction domain alone, control]”, the “contractile force as percentage” value [6] is reported as “no significant effect”.
